# Marks after values point to notes of the source that are not given here.
# System: Listeria monocytogenes EGD
# Test: Protection of mice by pretreatment against lethal Listeria monocytogenes infection
# Format: in vivo, CD1 mice
# Details: for Average Survival Time: survivors at 14 days given 15 day survival time
# Procedure: In the test CD1 mice weighing 18-20 g were pretreated parenterally with the test compound 5, 3, and 1 days before intravenous infection in the lateral tail vein with 0.1 ml containing 5 x 10^5 viable cells of Listeria monocytogenes EGD. Test compound was solubilized in pyrogen-free water and administered intraperitoneally in 0.25 ml of the solution. Ten mice each were used for each concentration tested. Ten control mice were treated intraperitoneally at 5, 3, and 1-days preinfection with 0.25 ml of pyrogen-free water. The mice were caged, watered, and fed daily. […] All surviving animals at 14 days were given an arbitrary 15 day survival time. The average survival time was calculated for each group. Significant differences between the treated and control groups of mice were determined by the standard "T" test.
smiles,measurement,setting,value
"C=C(CP(=O)(O)O)NC(=O)[C@H](CC(C)C)NC(=O)CN [Compound 1, N^2-glycyl-N-(1-methylene-2-phosphonoethyl)leucinamide]",Percent Survivors,"pretreatment 6.25 mg/kg i.p., day 1 post infection",100%
same,Percent Survivors,"pretreatment 6.25 mg/kg i.p., day 2 post infection",100%
same,Percent Survivors,"pretreatment 6.25 mg/kg i.p., day 3 post infection",100%
same,Percent Survivors,"pretreatment 6.25 mg/kg i.p., day 4 post infection",60%
same,Percent Survivors,"pretreatment 6.25 mg/kg i.p., day 5 post infection",50%
same,Percent Survivors,"pretreatment 6.25 mg/kg i.p., day 6 post infection",40%
same,Percent Survivors,"pretreatment 6.25 mg/kg i.p., day 7 post infection",30%
same,Percent Survivors,"pretreatment 6.25 mg/kg i.p., day 8 post infection",30%
same,Percent Survivors,"pretreatment 6.25 mg/kg i.p., day 9 post infection",30%
same,Percent Survivors,"pretreatment 6.25 mg/kg i.p., day 10 post infection",30%
same,Percent Survivors,"pretreatment 6.25 mg/kg i.p., day 11 post infection",30%
same,Percent Survivors,"pretreatment 6.25 mg/kg i.p., day 12 post infection",30%
same,Percent Survivors,"pretreatment 6.25 mg/kg i.p., day 13 post infection",30%
same,Percent Survivors,"pretreatment 6.25 mg/kg i.p., day 14 post infection",30%
same,Average Survival Time,pretreatment 6.25 mg/kg i.p.,7.9* Days
same,Percent Survivors,"pretreatment 12.5 mg/kg i.p., day 1 post infection",100%
same,Percent Survivors,"pretreatment 12.5 mg/kg i.p., day 2 post infection",100%
same,Percent Survivors,"pretreatment 12.5 mg/kg i.p., day 3 post infection",100%
same,Percent Survivors,"pretreatment 12.5 mg/kg i.p., day 4 post infection",80%
same,Percent Survivors,"pretreatment 12.5 mg/kg i.p., day 5 post infection",80%
same,Percent Survivors,"pretreatment 12.5 mg/kg i.p., day 6 post infection",70%
same,Percent Survivors,"pretreatment 12.5 mg/kg i.p., day 7 post infection",70%
same,Percent Survivors,"pretreatment 12.5 mg/kg i.p., day 8 post infection",70%
same,Percent Survivors,"pretreatment 12.5 mg/kg i.p., day 9 post infection",70%
same,Percent Survivors,"pretreatment 12.5 mg/kg i.p., day 10 post infection",70%
same,Percent Survivors,"pretreatment 12.5 mg/kg i.p., day 11 post infection",70%
same,Percent Survivors,"pretreatment 12.5 mg/kg i.p., day 12 post infection",70%
same,Percent Survivors,"pretreatment 12.5 mg/kg i.p., day 13 post infection",70%
same,Percent Survivors,"pretreatment 12.5 mg/kg i.p., day 14 post infection",70%
same,Percent Survivors,"pretreatment 12.5 mg/kg i.p., day 15 post infection",70%
same,Average Survival Time,pretreatment 12.5 mg/kg i.p.,11.9* Days
same,Percent Survivors,"pretreatment 25 mg/kg i.p., day 1 post infection",100%
same,Percent Survivors,"pretreatment 25 mg/kg i.p., day 2 post infection",100%
same,Percent Survivors,"pretreatment 25 mg/kg i.p., day 3 post infection",90%
same,Percent Survivors,"pretreatment 25 mg/kg i.p., day 4 post infection",70%
same,Percent Survivors,"pretreatment 25 mg/kg i.p., day 5 post infection",40%
same,Percent Survivors,"pretreatment 25 mg/kg i.p., day 6 post infection",40%
same,Percent Survivors,"pretreatment 25 mg/kg i.p., day 7 post infection",40%
same,Percent Survivors,"pretreatment 25 mg/kg i.p., day 8 post infection",40%
same,Percent Survivors,"pretreatment 25 mg/kg i.p., day 9 post infection",40%
same,Percent Survivors,"pretreatment 25 mg/kg i.p., day 10 post infection",40%
same,Percent Survivors,"pretreatment 25 mg/kg i.p., day 11 post infection",40%
same,Percent Survivors,"pretreatment 25 mg/kg i.p., day 12 post infection",40%
same,Percent Survivors,"pretreatment 25 mg/kg i.p., day 13 post infection",40%
same,Percent Survivors,"pretreatment 25 mg/kg i.p., day 14 post infection",40%
same,Percent Survivors,"pretreatment 25 mg/kg i.p., day 15 post infection",40%
same,Average Survival Time,pretreatment 25 mg/kg i.p.,8.6* Days
same,Percent Survivors,"pretreatment 50 mg/kg i.p., day 1 post infection",100%
same,Percent Survivors,"pretreatment 50 mg/kg i.p., day 2 post infection",100%
same,Percent Survivors,"pretreatment 50 mg/kg i.p., day 3 post infection",80%
same,Percent Survivors,"pretreatment 50 mg/kg i.p., day 4 post infection",70%
same,Percent Survivors,"pretreatment 50 mg/kg i.p., day 5 post infection",40%
same,Percent Survivors,"pretreatment 50 mg/kg i.p., day 6 post infection",30%
same,Percent Survivors,"pretreatment 50 mg/kg i.p., day 7 post infection",30%
same,Percent Survivors,"pretreatment 50 mg/kg i.p., day 8 post infection",30%
same,Percent Survivors,"pretreatment 50 mg/kg i.p., day 9 post infection",30%
same,Percent Survivors,"pretreatment 50 mg/kg i.p., day 10 post infection",30%
same,Percent Survivors,"pretreatment 50 mg/kg i.p., day 11 post infection",30%
same,Percent Survivors,"pretreatment 50 mg/kg i.p., day 12 post infection",30%
same,Percent Survivors,"pretreatment 50 mg/kg i.p., day 13 post infection",30%
same,Percent Survivors,"pretreatment 50 mg/kg i.p., day 14 post infection",30%
same,Percent Survivors,"pretreatment 50 mg/kg i.p., day 15 post infection",30%
same,Average Survival Time,pretreatment 50 mg/kg i.p.,7.6* Days
same,Percent Survivors,"pretreatment 100 mg/kg i.p., day 1 post infection",100%
same,Percent Survivors,"pretreatment 100 mg/kg i.p., day 2 post infection",100%
same,Percent Survivors,"pretreatment 100 mg/kg i.p., day 3 post infection",80%
same,Percent Survivors,"pretreatment 100 mg/kg i.p., day 4 post infection",50%
same,Percent Survivors,"pretreatment 100 mg/kg i.p., day 5 post infection",50%
same,Percent Survivors,"pretreatment 100 mg/kg i.p., day 6 post infection",50%
same,Percent Survivors,"pretreatment 100 mg/kg i.p., day 7 post infection",50%
same,Percent Survivors,"pretreatment 100 mg/kg i.p., day 8 post infection",50%
same,Percent Survivors,"pretreatment 100 mg/kg i.p., day 9 post infection",50%
same,Percent Survivors,"pretreatment 100 mg/kg i.p., day 10 post infection",50%
same,Percent Survivors,"pretreatment 100 mg/kg i.p., day 11 post infection",50%
same,Percent Survivors,"pretreatment 100 mg/kg i.p., day 12 post infection",50%
same,Percent Survivors,"pretreatment 100 mg/kg i.p., day 13 post infection",50%
same,Percent Survivors,"pretreatment 100 mg/kg i.p., day 14 post infection",50%
same,Percent Survivors,"pretreatment 100 mg/kg i.p., day 15 post infection",50%
same,Average Survival Time,pretreatment 100 mg/kg i.p.,9.3* Days
same,protecting mice against a lethal Listeria monocytogenes EGD infection,"pretreatment 5, 3, and 1 days before intravenous infection, intraperitoneally",highly effective

# From patent publication EP0107907A2, “Improvements in or relating to immunomodulating agents” (ELI LILLY AND COMPANY, priority 1982, dated 1984)
